Assay results taken from patent publication US20240360137A1 (Novartis AG, priority 2023, published 2024).

What was measured:
Test in all cases: CDKi biochemical assay (TR-FRET, phosphorylation of S780 on RB1 peptide)
[1] = target: CDK2/CyclinE1 (Homo sapiens, UniProt P24941); settings: CDK2/CyclinE1 100 pM, 1 mM ATP, 60 min at 25° C.
Summary of the method: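 CDK2/CyclinE1 (Avi-tag, 100 pM; CDK2 E. coli-expressed) phosphorylated His-MBP-RB1[773-924] (200 nM) at S780 with 1 mM ATP in HEPES pH 7.5/MgCl2/DTT, 60 min at 25° C. After EDTA quench, TR-FRET detection ran 3 h (Eu anti-p-RB S780, SA-APC). Apparent IC50 came from percent activity versus log concentration.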

[2] = target: CDK1/CyclinB1 (Homo sapiens, UniProt P06493); settings: CDK1/CyclinB1 10 pM, 1 mM ATP, 60 min at 25° C.
Summary of the method: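 CDK1/CyclinB1 (10 pM, Avi-tagged, insect-cell expressed) phosphorylated S780 of His-MBP-RB1[773-924] (200 nM) with 1 mM ATP in HEPES pH 7.5, 10 mM MgCl2, 1 mM DTT, 60 min at 25 °C. After EDTA quench, TR-FRET detection (Eu anti-pRB S780, SA-APC) for 3 h; apparent IC50 from percent activity versus log concentration.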

[3] = target: CDK4/cyclinD1 (Homo sapiens, UniProt P11802); settings: CDK4/cyclinD1 20 pM, 1 mM ATP, 60 min at 25° C.
Summary of the method: (§1)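 Avi-tagged, biotinylated CDK4/cyclinD1 (20 pM) or CDK6/cyclinD3 (10 pM) phosphorylates 200 nM His-MBP-RB1[773-924] at S780 with 1 mM ATP in HEPES pH 7.5/MgCl2, 60 min, 25° C. After EDTA quench, Eu anti-pRB(S780)/SA-APC TR-FRET is read after 3 h. Apparent IC50 comes from % activity versus log concentration.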

[4] = target: CDK6/cyclinD3 (Homo sapiens, UniProt Q00534); settings: CDK6/cyclinD3 10 pM, 1 mM ATP, 60 min at 25° C.
Summary of the method: as §1

IC50 [1] [µM]	IC50 [2] [µM]	IC50 [3] [µM]	IC50 [4] [µM]	Compound
0.006	0.82	7.69	≥ 10	O=C1N([C@@H]2CCC[C@@H](O)C2)c2nc(Nc3c[nH]nc3O[C@@H]3CC3(F)F)ncc2C12CC2 [Example 70, 2′-((3-((R)-2,2-difluorocyclopropoxy)-1H-pyrazol-4-yl)amino)-7′-((1R,3R)-3-hydroxycyclohexyl)spiro[cyclopropane-1,5′-pyrrolo[2,3-d]pyrimidin]-6′(7′H)-one]
0.044	7.59	≥ 10	≥ 10	O=C1N([C@@H]2CCC[C@@H](O)C2)c2nc(Nc3c[nH]nc3OC[C@@H]3CCOC3)ncc2C12CC2 [Example 71, 7′-((1R,3R)-3-hydroxycyclohexyl)-2′-((3-(((R)-tetrahydrofuran-3-yl)methoxy)-1H-pyrazol-4-yl)amino)spiro[cyclopropane-1,5′-pyrrolo[2,3-d]pyrimidin]-6′(7′H)-one]
0.061	7.5	≥ 10	≥ 10	O=C1N([C@@H]2CCC[C@@H](O)C2)c2nc(Nc3c[nH]nc3OC[C@H]3CCOC3)ncc2C12CC2 [Example 72, 7′-((1R,3R)-3-hydroxycyclohexyl)-2′-((3-(((S)-tetrahydrofuran-3-yl)methoxy)-1H-pyrazol-4-yl)amino)spiro[cyclopropane-1,5′-pyrrolo[2,3-d]pyrimidin]-6′(7′H)-one]
0.049	≥ 10	≥ 10	≥ 10	O=C1N([C@@H]2CCC[C@@H](O)C2)c2nc(Nc3c[nH]nc3-c3cnn4c3CCCC4)ncc2C12CC2 [Example 73, 7′-((1R,3R)-3-hydroxycyclohexyl)-2′-((3-(4,5,6,7-tetrahydropyrazolo[1,5-a]pyridin-3-yl)-1H-pyrazol-4-yl)amino)spiro[cyclopropane-1,5′-pyrrolo[2,3-d]pyrimidin]-6′(7′H)-one]
0.255	≥ 10	≥ 10	≥ 10	O=C1N([C@@H]2CCC[C@@H](O)C2)c2nc(Nc3c[nH]nc3OC3CCOCC3)ncc2C12CC2 [Example 74, 7′-((1R,3R)-3-hydroxycyclohexyl)-2′-((3-((tetrahydro-2H-pyran-4-yl)oxy)-1H-pyrazol-4-yl)amino)spiro[cyclopropane-1,5′-pyrrolo[2,3-d]pyrimidin]-6′(7′H)-one]
0.072	9.16	≥ 10	≥ 10	O=C1N([C@@H]2CCC[C@@H](O)C2)c2nc(Nc3c[nH]nc3OC[C@H]3COC[C@H]3F)ncc2C12CC2 [Example 75, 2′-((3-((-4-fluorotetrahydrofuran-3-yl)methoxy)-1H-pyrazol-4-yl)amino)-7′-((1R,3R)-3-hydroxycyclohexyl)spiro[cyclopropane-1,5′-pyrrolo[2,3-d]pyrimidin]-6′(7′H)-one]
0.032	3.29	7.27	≥ 10	O=C1N([C@@H]2CCC[C@@H](O)C2)c2nc(Nc3c[nH]nc3OCC3COCC3(F)F)ncc2C12CC2 (stereo partly drawn) [Example 76, 2′-((3-((4,4-difluorotetrahydrofuran-3-yl)methoxy)-1H-pyrazol-4-yl)amino)-7′-((1R,3R)-3-hydroxycyclohexyl)spiro[cyclopropane-1,5′-pyrrolo[2,3-d]pyrimidin]-6′(7′H)-one]
0.121	5.82	1.48	5.26	O=C1N([C@@H]2CCC[C@@H](O)C2)c2nc(Nc3c[nH]nc3O)ncc2C12CC2 [Example 77, 2′-((3-hydroxy-1H-pyrazol-4-yl)amino)-7′-((1R,3R)-3-hydroxycyclohexyl)spiro[cyclopropane-1,5′-pyrrolo[2,3-d]pyrimidin]-6′(7′H)-one]
0.017	2.54	2.6	3.54	O=C1N([C@@H]2CCC[C@@H](O)C2)c2nc(Nc3c[nH]nc3O[C@H]3CCOC3)ncc2C12CC2 [Example 78, 7′-((1R,3R)-3-hydroxycyclohexyl)-2′-((3-(((S)-tetrahydrofuran-3-yl)oxy)-1H-pyrazol-4-yl)amino)spiro[cyclopropane-1,5′-pyrrolo[2,3-d]pyrimidin]-6′(7′H)-one]
0.05	≥ 10	≥ 10	≥ 10	Cn1ccc(-c2n[nH]cc2Nc2ncc3c(n2)N([C@@H]2CCC[C@@H](O)C2)C(=O)C32CC2)n1 [Example 79, 7-((1R,3R)-3-hydroxycyclohexyl)-2′-((1′-methyl-1H,1′H-[3,3′-bipyrazol]-4-yl)amino)spiro[cyclopropane-1,5′-pyrrolo[2,3-d]pyrimidin]-6′(7′H)-one]
0.029	6.01	9.3	≥ 10	Cn1cc(-c2n[nH]cc2Nc2ncc3c(n2)N([C@@H]2CCC[C@@H](O)C2)C(=O)C32CC2)cn1 [Example 80, 7′-((1R,3R)-3-hydroxycyclohexyl)-2′-((1′-methyl-1H,1′H-[3,4′-bipyrazol]-4-yl)amino)spiro[cyclopropane-1,5′-pyrrolo[2,3-d]pyrimidin]-6′(7′H)-one]
0.006	0.41	≥ 10	≥ 10	O=C1N([C@@H]2CCC[C@@H](O)C2)c2nc(Nc3c[nH]nc3-c3cnn4cccnc34)ncc2C12CC2 [Example 81, 7′-((1R,3R)-3-hydroxycyclohexyl)-2′-((3-(pyrazolo[1,5-a]pyrimidin-3-yl)-1H-pyrazol-4-yl)amino)spiro[cyclopropane-1,5′-pyrrolo[2,3-d]pyrimidin]-6′(7′H)-one]
0.031	8.62	2.18	2.67	O=C1N([C@@H]2CCC[C@@H](O)C2)c2nc(Nc3c[nH]nc3-c3nnco3)ncc2C12CC2 [Example 83, 2′-((3-(1,3,4-oxadiazol-2-yl)-1H-pyrazol-4-yl)amino)-7′-((1R,3R)-3-hydroxycyclohexyl)spiro[cyclopropane-1,5′-pyrrolo[2,3-d]pyrimidin]-6′(7′H)-one]
0.088	≥ 10	≥ 10	≥ 10	Cn1ncc(-c2n[nH]cc2Nc2ncc3c(n2)N([C@@H]2CCC[C@@H](O)C2)C(=O)C32CC2)c1C(F)(F)F [Example 84, 7′-((1R,3R)-3-hydroxycyclohexyl)-2′-((1′-methyl-5′-(trifluoromethyl)-1H,1′H-[3,4′-bipyrazol]-4-yl)amino)spiro[cyclopropane-1,5′-pyrrolo[2,3-d]pyrimidin]-6′(7′H)-one]
0.027	1.71	4.4	≥ 10	O=C1N([C@@H]2CCC[C@@H](O)C2)c2nc(Nc3c[nH]nc3OC3(CF)CC3)ncc2C12CC2 [Example 85, 2′-((3-(1-(fluoromethyl)cyclopropoxy)-1H-pyrazol-4-yl)amino)-7′-((1R,3R)-3-hydroxycyclohexyl)spiro[cyclopropane-1,5′-pyrrolo[2,3-d]pyrimidin]-6′(7′H)-one]

Compound	IC50 [1] [µM]	IC50 [2] [µM]	IC50 [3] [µM]	IC50 [4] [µM]
CO[C@H]1C[C@H](Oc2n[nH]cc2Nc2ncc3c(n2)N([C@@H]2CCC[C@@H](O)C2)C(=O)C32CC2)C1 [Example 82, 7′-((1R,3R)-3-hydroxycyclohexyl)-2′-((3-((1r,3R)-3-methoxycyclobutoxy)-1H-pyrazol-4-yl)amino)spiro[cyclopropane-1,5′-pyrrolo[2,3-d]pyrimidin]-6′(7′H)-one]	0.026	2.53	≥ 10	≥ 10
